Source: paper PMC10876507, “Chelator impact: investigating the pharmacokinetic behavior of copper-64 labeled PD-L1 radioligands” (EJNMMI Radiopharmacy and Chemistry, 2024)
pKd: −log10 of the molar value. Several values for one entry are separate records, joined by “and”; a condition that tells them apart may be missing. Equal entries are not always repeated.

Tests used:
[1] = target: T1, PD-L1 (Homo sapiens, UniProt Q9NZQ7); experiment: Real-time radioligand binding (LigandTracer) on PC3 PD-L1 overexpressing cells, without BSA; set-up: expressed in transfected cells; host or cells: PC3 PD-L1 overexpressing cells
T1 sequence (Q9NZQ7 19-290): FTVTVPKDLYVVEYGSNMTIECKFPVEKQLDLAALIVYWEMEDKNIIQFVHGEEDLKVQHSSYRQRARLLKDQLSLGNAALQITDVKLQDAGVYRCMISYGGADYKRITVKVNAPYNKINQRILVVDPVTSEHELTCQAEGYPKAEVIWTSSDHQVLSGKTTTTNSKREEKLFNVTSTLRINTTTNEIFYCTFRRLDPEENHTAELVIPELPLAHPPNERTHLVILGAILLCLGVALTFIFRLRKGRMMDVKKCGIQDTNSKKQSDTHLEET
Experimental: For the saturation binding experiments, cells were detached with 0.05% Trypsin–EDTA (Gibco, USA), and counted (CASY1 cell counter, Schaerfe System, Reutlingen, Germany). Cells were then diluted in medium to ~ 160,000 cells/mL and seeded in 48 well plates (Falcon Multiwell #353078, ThermoFisher, Karlsruhe, Germany) for at least 2 days prior to saturation binding experiments. For real-time radioligand binding, approximately 400,000 cells/mL were seeded into one side of petri dishes (3 mL, Nunclon, # 150350, ThermoFisher Germany) ~ 24 h before the experiments.
To investigate binding kinetics, including the association rate constant (ka) and dissociation rate constant (kd), as well as the dissociation constant (KD), a real-time assay system (LigandTracer Yellow or LigandTracer White, Ridgeview Instruments AB, Uppsala, Sweden) was utilized. The petri dish contained attached cells in medium (3 mL) on one side, while radioactivity was detected on the opposing side. The petri dish is set upon an inclined base, allowing continuous measurement of alternating portions of the dish for bound radioligand (cells) compared to the background signal (no cells). Binding experiments were carried out at room temperature using CO2-independent medium (Gibco #18045088, ThermoFisher Germany).
The association phase consisted of incubation with two concentrations (30 and 90 nM, each for 90 min) of our ^64Cu-labeled PD-L1-radioligands, binding to PC3 PD-L1 overexpressing cells. Following this, the incubation medium was replaced with fresh medium, and the dissociation phase was monitored for a minimum of 2 h. […] Data were recorded as decay-corrected counts per second (CPS). Subsequently, binding data were analyzed using TraceDrawer software (version 1.9.2, Ridgeview Instruments AB, Uppsala, Sweden). Traces were imported, potential spikes (instances of sudden CPS increases exceeding 100% of the previous data point) were eliminated, and each trace was normalized to its own baseline (set as 0%) and its maximum value (set as 100%).

[2] = Proteolytic stability in human serum at 37 °C, radio-HPLC; format: in vitro ADME; conditions: 48 h
Experimental: For proteolytic stability studies, a solution of the radiolabeled compound was diluted with human serum in a ratio of 1:10. This mixture then underwent incubation at 37 °C while being shaken at 300 rpm. At each designated timepoint (1, 24 and 48 h), an aliquot was withdrawn and added to a detergent solution (water with 20% v/v EtOH, 5% v/v 5 mM aqueous EDTA, 0.5% v/v Triton X-100, 0.1% m/v saponin, 0.05% v/v 0.5 mM aqueous o-phenanthroline) in a ratio of 1:2 for precipitation of serum proteins. The mixture was cooled on ice for 5 min, followed by centrifugation at 12,000 g for 5 min. A minor portion of the resulting supernatant was subjected to analytical radio-HPLC (reversed-phase, Phenomenex Jupiter 300 C-18, 5 µm, 4.6 × 250 mm) with 10–95% acetonitrile (0.1% TFA) in water (0.1% TFA) in a linear gradient over 15 min, 1 mL/min, γ-detection). The assessment and graphical representations were performed using OriginPro® 9.0.

[3] = n-octanol/PBS pH 7.4, shake flask
Experimental: The n-octanol/water distribution coefficients for each radioligand were determined using the shake-flask method. Each experiment was conducted in triplicate. To initiate the experiment, 30 µL of the labeling mixture was combined with 570 µL of PBS (pH 7.4) and 600 µL of n-octanol in a 1.5 mL Eppendorf-Tube. The resulting mixture was shaken at room temperature at 1500 rpm for 5 min before undergoing centrifugation. An aliquot was extracted from each phase, and radioactivity was measured on a γ-counter (ISOMED 2160). Subsequently, mean values were calculated and adjusted for background activity. The log D7.4 value was determined utilizing the equation: logD7.4=logAn-octanol/APBS

[4] = system: PC3 PD-L1 overexpressing and PD-L1-mock tumors; experiment: PET imaging in NMRI-nude mice bearing PC3 PD-L1 and PC3 mock tumors; format: in vivo; conditions: for excretion pattern / clearance route in PET: PET 0–25 h p.i.; for SUVmax PC3 PD-L1 tumor / SUVmax PC3 mock tumor / SUVmax kidney / SUVmax liver: tracer only, i.v.
Experimental: Male athymic NMRI-nude mice (Rj:NMRI-Foxn1nu, Janvier Labs, Le Genest-Saint-Isle, France) aged between 8 to 16 weeks were employed for the study. General anesthesia was induced [~ 10% desflurane (Baxter, Deerfield, IL, USA) in 30 vol% oxygen + air] under controlled warming (37°C), and mice were subcutaneously injected with 3–5 × 10^6 PC3 PD-L1 and PC3 mock cells (in 50 µL PBS + 50 µL Matrigel, Corning, Glendale, CA, USA) into the right and left thigh, respectively. The growth of tumors was systematically monitored three times per week through caliper measurements, and animals with tumor sizes above 7 mm were included in the subsequent experiments.
PET and X-ray computed tomography (CT) scans were conducted under general anesthesia using a small animal nanoScan PET/CT scanner (Mediso, Budapest, Hungary), capable of imaging four animals simultaneously. CT images served attenuation correction and anatomical referencing. A total of three individual scans were conducted, corresponding to the timeframes of 0–2 h (dynamic reconstruction), 4–5 h, and 24–25 h (one frame reconstruction) after injection.
The PD-L1 radiotracer candidates (in 300 µL sterile 0.9% NaCl/HEPES buffer, pH 6–7, containing between 7 and 12 MBq, with molar activities exceeding 12 GBq/µmol) were intravenously delivered over 30 s through a catheter in the lateral tail vein. The PET acquisition was initiated simultaneously with the administration.
The acquired three-dimensional list mode data were sorted and binned within a 400–600 keV energy window, forming […] (15 × 10 s, 5 × 30 s, 5 × 60 s, 4 × 300 s, 3 × 600 s, 3 × 1200 s). Reconstruction of the time frames was accomplished using the Tera-TomoTM 3D algorithm, utilizing a voxel size of 0.4 mm and applying corrections for decay, scatter, and attenuation. The images were subjected to post-processing and analysis using Rover software (ABX GmbH, Radeberg, Germany), and were depicted as maximum intensity projections (MIPs) at the specified timepoints and scaling.
Three-dimensional volumes of interest were defined using fixed thresholding at 35–40% of the maximal measured intensity. Standardized uptake values (SUV = [MBq detected activity/mL tissue] / [MBq injected activity/g body weight], in mL/g) were then calculated within the selected volumes of interest, encompassing PD-L1 and mock tumors, as well as metabolizing organs.

[5] = target: T1, PD-L1; experiment: Saturation binding assay on human PD-L1 transduced PC3 cells (assay buffer with 2.5% BSA); set-up: expressed in transfected cells; host or cells: PC3 cells transduced with human PD-L1 (PC3-PD-L1)
[6] = tracer +500 nM respective unlabeled compound, 1-2 hour p.i., mice
[7] = tracer +500 nM respective unlabeled compound, 4-5 hour p.i., mice
[8] = tracer +500 nM respective unlabeled compound, 24-25 hour p.i., mice
[9] = 1-2 hour p.i., mice, listed as [64Cu]Cu-15
[10] = 1-2 hour p.i., mice, listed as [64Cu]Cu-17
[11] = 4-5 hour p.i., mice, listed as [64Cu]Cu-17
[12] = 24-25 hour p.i., mice, listed as [64Cu]Cu-17

Cc1c(COc2cc(OCc3cncc(S(C)(=O)=O)c3)c(CN[C@@H](CS(=O)(=O)O)C(=O)NCCS(=O)(=O)O)cc2Br)cccc1-c1cccc(OCc2cn(CCCN3CCN(C(=O)[C@H](CS(=O)(=O)O)NC(=O)CN4CCCN5CCN(CCCN(CC(=O)[O-])CC5)CC4)CC3)nn2)c1C.[64Cu+2] [[^64Cu]Cu-15]
pKd ([1]; PC3 PD-L1 overexpressing cells, room temperature, without BSA): ~7.70 and 7.72 | ka ([1]; association rate constant, real-time binding): (5.10 ± 0.55) × 10^3 (M × s)^–1 | kd ([1]; dissociation rate constant, real-time binding): (0.96 ± 0.02) × 10^–4 s^–1 | intact radioligand after incubation in human serum [2]: 88% | Log D7.4 [3]: –2.11 ± 0.02 | PD-L1 tumor uptake after preinjection of 500 nmol of cold ligand ([4]; blocking, mice): not significantly reduced | excretion pattern / clearance route in PET ([4]; mice): hepatobiliary excretion pattern | SUVmax PC3 PD-L1 tumor, blocking ([4]; tracer +500 nM respective unlabeled compound (injected 5 min prior), 1-2 hour p.i., mice): 1.58 | SUVmax PC3 mock tumor, blocking [4, 6]: 1.17 | SUVmax kidney, blocking [4, 6]: 7.41 | SUVmax liver, blocking [4, 6]: 1.49 | SUVmax PC3 PD-L1 tumor, blocking [4, 7]: 0.77 | SUVmax PC3 mock tumor, blocking [4, 7]: 0.57 | SUVmax kidney, blocking [4, 7]: 0.78 | SUVmax liver, blocking [4, 7]: 1.82 | SUVmax PC3 PD-L1 tumor, blocking [4, 8]: 0.91 | SUVmax PC3 mock tumor, blocking [4, 8]: 0.78 | SUVmax kidney, blocking [4, 8]: 0.51 | SUVmax liver, blocking [4, 8]: 0.78 | SUVmax PC3 PD-L1 tumor ([4]; 1-2 hour p.i., mice): 1.03 ± 0.23 | SUVmax PC3 mock tumor ([4]; 1-2 hour p.i., mice): 0.61 | SUVmax kidney ([4]; 1-2 hour p.i., mice): 3.26 ± 0.98 | SUVmax liver ([4]; 1-2 hour p.i., mice): 3.80 ± 0.33 | SUVmax PC3 PD-L1 tumor [4, 9]: 1.03 | SUVmax kidney [4, 9]: 3.26 | SUVmax liver [4, 9]: 3.80 | SUVmax PC3 PD-L1 tumor ([4]; 4-5 hour p.i., mice): 0.66 ± 0.16 | SUVmax PC3 mock tumor ([4]; 4-5 hour p.i., mice): 0.44 | SUVmax kidney ([4]; 4-5 hour p.i., mice): 0.68 | SUVmax liver ([4]; 4-5 hour p.i., mice): 1.41 | SUVmax PC3 PD-L1 tumor ([4]; 4-5 hour p.i., mice, listed as [64Cu]Cu-15): 0.66 | SUVmax PC3 PD-L1 tumor ([4]; 24-25 hour p.i., mice): 0.90 ± 0.09 | SUVmax PC3 mock tumor ([4]; 24-25 hour p.i., mice): 0.76 | SUVmax kidney ([4]; 24-25 hour p.i., mice): 0.48 | SUVmax liver ([4]; 24-25 hour p.i., mice): 1.01 | SUVmax PC3 PD-L1 tumor ([4]; 24-25 hour p.i., mice, listed as [64Cu]Cu-15): 0.90 | pKd ([5]; human PD-L1 transduced PC3 cells, on ice 90 min, PBS + 2.5% w/v BSA): 6.73 | Bmax ([5]; saturation binding, pmol/mg protein, PC3 PD-L1 cells): 2.58 ± 0.35 pmol/mg

Cc1c(COc2cc(OCc3cncc(S(C)(=O)=O)c3)c(CN[C@@H](CS(=O)(=O)O)C(=O)NCCS(=O)(=O)O)cc2Br)cccc1-c1cccc(OCc2cn(CCCN3CCN(C(=O)[C@H](CS(=O)(=O)O)NC(=O)CCCC(=O)NC45CNCCNCC(NC(=O)CCCC(=O)N[C@@H](CS(=O)(=O)O)C(=O)N6CCN(CCCn7cc(COc8cccc(-c9cccc(COc%10cc(OCc%11cncc(S(C)(=O)=O)c%11)c(CN[C@@H](CS(=O)(=O)O)C(=O)NCCS(=O)(=O)O)cc%10Br)c9C)c8C)nn7)CC6)(CNCCNC4)CNCCNC5)CC3)nn2)c1C.[64Cu+2] [[^64Cu]Cu-17]
intact radioligand after incubation in human serum [2]: 86% | contrast of PD-L1 positive tumor to PD-L1 negative tumor ([4]; 24–25 h p.i.): 109% | excretion pattern / clearance route in PET ([4]; mice): rather renal than hepatobiliary clearance | SUVmax PC3 PD-L1 tumor ([4]; 1-2 hour p.i., mice): 0.49 ± 0.11 | SUVmax PC3 mock tumor ([4]; 1-2 hour p.i., mice): 0.31 | SUVmax kidney ([4]; 1-2 hour p.i., mice): 1.32 ± 0.47 | SUVmax liver ([4]; 1-2 hour p.i., mice): 17.0 ± 1.48 | SUVmax PC3 PD-L1 tumor [4, 10]: 0.49 | SUVmax kidney [4, 10]: 1.32 | SUVmax liver [4, 10]: 17.03 | SUVmax PC3 PD-L1 tumor ([4]; 4-5 hour p.i., mice): 0.81 | SUVmax PC3 mock tumor ([4]; 4-5 hour p.i., mice): 0.50 | SUVmax kidney ([4]; 4-5 hour p.i., mice): 2.18 ± 0.80 | SUVmax liver ([4]; 4-5 hour p.i., mice): 14.4 ± 1.26 | SUVmax kidney [4, 11]: 2.18 | SUVmax liver [4, 11]: 14.35 | SUVmax PC3 PD-L1 tumor ([4]; 24-25 hour p.i., mice): 2.47 ± 1.04 | SUVmax PC3 mock tumor ([4]; 24-25 hour p.i., mice): 1.18 | SUVmax kidney ([4]; 24-25 hour p.i., mice): 2.40 ± 0.60 | SUVmax liver ([4]; 24-25 hour p.i., mice): 8.62 ± 0.84 | SUVmax PC3 PD-L1 tumor [4, 12]: 2.47 | SUVmax kidney [4, 12]: 2.40 | SUVmax liver [4, 12]: 8.62
